Inhibition data for one molecule are collected here from PMC7180948, “New Insights into 4-Anilinoquinazolines as Inhibitors of Cardiac Troponin I–Interacting Kinase (TNNi3K)” (Molecules, 2020).

Holding throughout (experiment): biochemical
Common to all, as to set-up: KINOMEscan competition binding panel (Eurofins DiscoverX), single concentration, percent inhibition
Common to all, as to conditions: read-out: 15 at 1 µM % inhibition

For one test, the target named is T1, FAK (Homo sapiens, UniProt Q05397).
T1 construct: gene PTK2
In a few lines: (§1)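 Binding was profiled in the KINOMEscan panel of over 400 human kinases, with each compound tested at a single concentration of 1 µM to map selectivity.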

Another test deals with T2, TRKC (Homo sapiens, UniProt Q16288).
T2 construct: gene NTRK3
In short, it runs like this:
as §1

A further test deals with SRPK2 (Homo sapiens, UniProt P78362). In short, it runs like this: as §1
Test [1] deals with T3, RSK3(Kin.Dom.1-N-terminal) (Homo sapiens, UniProt Q15349).
T3 construct: gene RPS6KA2; Kin.Dom.1-N-terminal
In short, it runs like this:
as §1

Another test addresses PKN1 (Homo sapiens, UniProt Q16512). In a few lines:
as §1

A further test has as its target PIM1 (Homo sapiens, UniProt P11309). In a few lines:
as §1

The target in a further test is ITK (Homo sapiens, UniProt Q08881). In a few lines:
as §1

The next test has as its target T4, SNARK (Homo sapiens, UniProt Q9H093).
T4 construct: gene NUAK2
In a few lines: as §1

Another test addresses TAOK1 (Homo sapiens, UniProt Q7L7X3). In short, it runs like this:
as §1

The target in a further test is PIK3CA(E542K) (Homo sapiens, UniProt P42336, E542K). In short, it runs like this: as §1
The target in a further test is PIK3CA(I800L) (Homo sapiens, UniProt P42336, I800L). In short, it runs like this: as §1
For a further test, the target named is CAMK2G (Homo sapiens, UniProt Q13555). In short, it runs like this: as §1
The next test concerns the target MAPKAPK2 (Homo sapiens, UniProt P49137). In a few lines: as §1
A further test deals with CDK7 (Homo sapiens, UniProt P50613). In a few lines:
as §1

The target in a further test is LATS1 (Homo sapiens, UniProt O95835). In a few lines:
as §1

The target of the next test is ERN1 (Homo sapiens, UniProt O75460). In a few lines: as §1
The target of another test is CSNK2A1 (Homo sapiens, UniProt P68400). In a few lines: as §1
Another test has as its target GRK3 (Homo sapiens, UniProt P35626). In a few lines:
as §1

Another test addresses PDGFRA (Homo sapiens, UniProt P16234). In short, it runs like this:
as §1

Another test addresses CAMK2A (Homo sapiens, UniProt Q9UQM7). In a few lines: as §1
The target in a further test is T5, p38-delta (Homo sapiens, UniProt O15264).
T5 construct: gene MAPK13
In short, it runs like this: as §1

The next test has as its target CSNK1G3 (Homo sapiens, UniProt Q9Y6M4). In short, it runs like this: as §1
Another test has as its target LATS2 (Homo sapiens, UniProt Q9NRM7). In a few lines: as §1
The next test has as its target BRAF (Homo sapiens, UniProt P15056). In a few lines:
as §1

Chain of GRK3 (P35626 whole entry): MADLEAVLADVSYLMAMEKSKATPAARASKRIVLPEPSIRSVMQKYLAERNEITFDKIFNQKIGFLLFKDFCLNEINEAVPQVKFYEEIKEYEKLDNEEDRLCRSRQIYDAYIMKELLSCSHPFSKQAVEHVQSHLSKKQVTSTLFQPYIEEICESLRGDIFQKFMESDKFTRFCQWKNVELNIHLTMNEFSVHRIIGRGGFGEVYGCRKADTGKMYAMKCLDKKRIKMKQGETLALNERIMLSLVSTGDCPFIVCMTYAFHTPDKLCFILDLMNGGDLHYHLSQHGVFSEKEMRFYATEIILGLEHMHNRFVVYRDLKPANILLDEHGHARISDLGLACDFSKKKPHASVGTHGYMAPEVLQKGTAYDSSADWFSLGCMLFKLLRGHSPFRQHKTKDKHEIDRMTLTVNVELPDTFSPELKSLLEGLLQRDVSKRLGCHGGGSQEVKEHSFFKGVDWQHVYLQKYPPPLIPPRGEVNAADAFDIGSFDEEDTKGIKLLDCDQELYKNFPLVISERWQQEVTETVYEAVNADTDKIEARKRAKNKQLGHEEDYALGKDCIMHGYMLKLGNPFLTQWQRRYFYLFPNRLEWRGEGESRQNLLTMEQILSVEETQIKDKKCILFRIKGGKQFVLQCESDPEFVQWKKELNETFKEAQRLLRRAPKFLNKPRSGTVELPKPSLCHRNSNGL
Chain of CSNK2A1 (P68400 whole entry): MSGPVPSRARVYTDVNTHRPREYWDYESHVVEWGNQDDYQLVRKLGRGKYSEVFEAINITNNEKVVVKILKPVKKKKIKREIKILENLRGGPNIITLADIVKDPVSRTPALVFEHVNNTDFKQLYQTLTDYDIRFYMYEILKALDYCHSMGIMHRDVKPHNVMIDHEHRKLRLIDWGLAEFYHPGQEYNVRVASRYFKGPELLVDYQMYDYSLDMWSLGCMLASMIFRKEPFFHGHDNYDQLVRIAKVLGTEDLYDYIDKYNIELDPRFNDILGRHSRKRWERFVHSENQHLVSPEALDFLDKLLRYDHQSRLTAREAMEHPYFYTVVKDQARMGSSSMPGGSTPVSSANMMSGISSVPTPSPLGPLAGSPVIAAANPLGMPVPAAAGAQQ
Chain of PIK3CA(I800L) (P42336 whole entry I800L): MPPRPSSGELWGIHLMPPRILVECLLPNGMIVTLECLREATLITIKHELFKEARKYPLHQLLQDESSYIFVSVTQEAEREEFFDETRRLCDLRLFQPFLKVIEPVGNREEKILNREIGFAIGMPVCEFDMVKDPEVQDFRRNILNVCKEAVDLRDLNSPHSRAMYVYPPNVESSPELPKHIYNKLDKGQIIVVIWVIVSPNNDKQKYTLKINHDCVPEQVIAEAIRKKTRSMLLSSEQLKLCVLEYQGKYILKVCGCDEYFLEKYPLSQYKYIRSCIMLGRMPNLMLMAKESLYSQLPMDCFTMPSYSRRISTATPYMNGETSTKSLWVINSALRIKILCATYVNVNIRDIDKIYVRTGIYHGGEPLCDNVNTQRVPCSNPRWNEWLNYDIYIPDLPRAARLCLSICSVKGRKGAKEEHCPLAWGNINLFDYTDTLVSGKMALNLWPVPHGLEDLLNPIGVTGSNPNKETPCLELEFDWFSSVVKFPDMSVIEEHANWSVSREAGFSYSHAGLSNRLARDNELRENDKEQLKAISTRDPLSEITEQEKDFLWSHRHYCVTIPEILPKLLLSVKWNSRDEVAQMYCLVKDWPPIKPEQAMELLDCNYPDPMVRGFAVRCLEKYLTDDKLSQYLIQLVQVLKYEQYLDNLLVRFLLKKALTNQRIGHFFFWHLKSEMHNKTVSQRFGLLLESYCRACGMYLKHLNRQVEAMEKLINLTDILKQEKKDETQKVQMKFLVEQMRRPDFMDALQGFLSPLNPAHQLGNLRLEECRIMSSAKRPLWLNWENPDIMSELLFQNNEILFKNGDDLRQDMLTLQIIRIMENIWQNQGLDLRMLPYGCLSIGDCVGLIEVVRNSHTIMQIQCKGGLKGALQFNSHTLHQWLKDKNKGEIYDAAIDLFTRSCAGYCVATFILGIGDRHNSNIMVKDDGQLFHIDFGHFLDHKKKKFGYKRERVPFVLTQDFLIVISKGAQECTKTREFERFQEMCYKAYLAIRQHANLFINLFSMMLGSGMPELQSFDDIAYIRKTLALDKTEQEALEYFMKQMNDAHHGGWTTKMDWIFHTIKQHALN
Chain of PIM1 (P11309 whole entry): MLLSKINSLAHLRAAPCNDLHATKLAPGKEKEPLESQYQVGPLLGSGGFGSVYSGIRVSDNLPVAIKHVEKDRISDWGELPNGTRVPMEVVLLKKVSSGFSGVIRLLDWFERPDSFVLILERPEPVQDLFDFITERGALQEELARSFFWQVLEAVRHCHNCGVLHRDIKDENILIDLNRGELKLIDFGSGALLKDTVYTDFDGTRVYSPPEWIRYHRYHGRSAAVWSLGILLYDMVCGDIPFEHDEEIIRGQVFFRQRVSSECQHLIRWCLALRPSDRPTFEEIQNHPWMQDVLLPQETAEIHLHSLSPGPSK
Chain of CAMK2G (Q13555 whole entry): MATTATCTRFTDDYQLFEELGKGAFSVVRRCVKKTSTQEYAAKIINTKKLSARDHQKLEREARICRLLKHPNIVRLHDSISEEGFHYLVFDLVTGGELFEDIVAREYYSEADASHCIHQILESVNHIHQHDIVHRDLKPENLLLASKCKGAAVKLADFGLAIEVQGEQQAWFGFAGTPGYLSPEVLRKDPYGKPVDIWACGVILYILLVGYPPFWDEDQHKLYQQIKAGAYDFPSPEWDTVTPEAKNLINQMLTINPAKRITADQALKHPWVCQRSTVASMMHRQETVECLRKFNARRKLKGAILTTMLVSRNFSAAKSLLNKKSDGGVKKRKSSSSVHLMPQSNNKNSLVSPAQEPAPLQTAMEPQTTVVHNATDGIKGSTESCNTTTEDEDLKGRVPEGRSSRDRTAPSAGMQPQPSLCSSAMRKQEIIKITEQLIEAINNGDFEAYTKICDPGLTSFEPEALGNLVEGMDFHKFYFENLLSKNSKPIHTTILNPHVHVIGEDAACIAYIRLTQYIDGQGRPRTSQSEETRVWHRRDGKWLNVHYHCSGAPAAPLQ
Chain of ERN1 (O75460 whole entry): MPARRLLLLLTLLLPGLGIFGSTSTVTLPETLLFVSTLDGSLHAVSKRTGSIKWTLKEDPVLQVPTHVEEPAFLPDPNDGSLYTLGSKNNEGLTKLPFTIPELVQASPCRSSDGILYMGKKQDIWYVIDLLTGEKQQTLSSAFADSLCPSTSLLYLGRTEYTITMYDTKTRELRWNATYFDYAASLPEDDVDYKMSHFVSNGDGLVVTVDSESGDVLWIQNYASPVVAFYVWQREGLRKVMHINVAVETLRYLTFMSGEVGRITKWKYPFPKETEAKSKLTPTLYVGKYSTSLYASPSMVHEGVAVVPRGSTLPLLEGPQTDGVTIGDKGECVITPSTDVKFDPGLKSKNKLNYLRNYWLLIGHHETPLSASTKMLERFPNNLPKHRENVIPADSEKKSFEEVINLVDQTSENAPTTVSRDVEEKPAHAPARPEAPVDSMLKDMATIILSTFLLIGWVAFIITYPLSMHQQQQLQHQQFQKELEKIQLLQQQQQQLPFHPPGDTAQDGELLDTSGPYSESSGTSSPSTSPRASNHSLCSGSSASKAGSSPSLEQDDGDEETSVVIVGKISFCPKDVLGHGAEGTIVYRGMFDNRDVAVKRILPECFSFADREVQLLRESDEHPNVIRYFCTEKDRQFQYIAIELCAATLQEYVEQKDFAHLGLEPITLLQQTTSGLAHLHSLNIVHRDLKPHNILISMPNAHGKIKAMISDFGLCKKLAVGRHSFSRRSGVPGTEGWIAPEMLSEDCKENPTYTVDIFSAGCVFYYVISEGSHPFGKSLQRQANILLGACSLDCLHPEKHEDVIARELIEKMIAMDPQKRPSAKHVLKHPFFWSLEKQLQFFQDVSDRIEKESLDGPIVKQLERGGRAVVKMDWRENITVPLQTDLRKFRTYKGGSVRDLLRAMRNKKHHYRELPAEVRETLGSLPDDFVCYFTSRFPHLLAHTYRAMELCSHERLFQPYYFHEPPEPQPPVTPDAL
T2 sequence (Q16288 whole entry): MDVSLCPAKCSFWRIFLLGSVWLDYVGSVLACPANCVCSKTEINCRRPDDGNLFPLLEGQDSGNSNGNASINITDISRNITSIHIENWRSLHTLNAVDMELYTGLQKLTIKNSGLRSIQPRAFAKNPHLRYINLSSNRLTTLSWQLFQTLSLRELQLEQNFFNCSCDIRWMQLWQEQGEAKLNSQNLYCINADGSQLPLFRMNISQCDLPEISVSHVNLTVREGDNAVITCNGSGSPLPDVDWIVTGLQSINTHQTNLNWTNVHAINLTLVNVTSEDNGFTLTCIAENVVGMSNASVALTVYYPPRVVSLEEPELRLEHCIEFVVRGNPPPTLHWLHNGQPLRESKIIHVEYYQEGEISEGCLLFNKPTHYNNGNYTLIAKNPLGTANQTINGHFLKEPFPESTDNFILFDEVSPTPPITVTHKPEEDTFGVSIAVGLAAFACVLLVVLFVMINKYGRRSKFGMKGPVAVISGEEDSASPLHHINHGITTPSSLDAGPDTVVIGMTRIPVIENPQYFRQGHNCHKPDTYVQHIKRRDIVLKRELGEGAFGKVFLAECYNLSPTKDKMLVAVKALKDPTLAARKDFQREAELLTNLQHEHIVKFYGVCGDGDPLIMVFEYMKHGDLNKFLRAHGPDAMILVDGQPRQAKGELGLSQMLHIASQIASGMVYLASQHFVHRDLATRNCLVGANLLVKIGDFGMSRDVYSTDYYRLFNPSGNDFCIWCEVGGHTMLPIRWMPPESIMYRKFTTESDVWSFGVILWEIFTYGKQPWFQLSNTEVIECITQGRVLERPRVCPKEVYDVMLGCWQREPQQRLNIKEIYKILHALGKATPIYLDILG
Chain of PIK3CA(E542K) (P42336 whole entry E542K): as the sequence (P42336 whole entry I800L) above, with E542K, L800I counted along it

As to `CNS(=O)(=O)c1ccc(N(C)C)c(Nc2nc(C)nc3cc(OC)c(OC)cc23)c1` [compound 15, 3-((6,7-dimethoxy-2-methylquinazolin-4-yl)amino)-4-(dimethylamino)-N-methylbenzenesulfonamide], the inhibition (as a rule, the relative decrease from the control value, in per cent) at 1 µM on FAK was 0%; at TRKC it was 22%; at SRPK2 it was 16%; in [1] it was 11%; at PKN1 it was 5%; at PIM1, 2%. Further, the inhibition at 1 µM on ITK was 0%; at SNARK, 18%; on TAOK1 it was 15%; on PIK3CA(E542K) it was 22%; on PIK3CA(I800L) it was 38%; on CAMK2G it was 0%. Also, the inhibition at 1 µM at MAPKAPK2 amounted to 0%; at CDK7, 18%; on LATS1, 14%; on ERN1 it was 3%; on CSNK2A1, 18%; at GRK3, 32%. Further, the inhibition at 1 µM on PDGFRA amounted to 10%; on CAMK2A it was 4%; on p38-delta, 17%; on CSNK1G3, 0%; on LATS2, 14%; on BRAF, 20%.
